Data as given in patent US20160081973A1, “ACTIVATOR OF MITOCHONDRIA” (FLORA CO., LTD., priority 2013, published 2016).

What was measured:
Type in all cases: cell-based, human
[1] = test system: HL60 cells; experiment: Cell differentiation induction test, NBT reduction staining (differentiation into neutrophils); settings: for differentiation ratio (ratio of NBT-stained cells): after 10 days of culture
Protocol: (§1) To each well of a 6-well plate, 1 mL of HL60 cells were plated at a concentration of 5×10^4 cells/mL, and a test substance at five serial concentrations (a 10-fold dilution series ranging from 10%) was added to the well at the same time as the plating. The cells in the plate were cultured for 5 days or 10 days under 5% […] at 37° C. The cell suspension in each well was recovered by centrifugation, and the number of cells, the NBT reducing capacity, and the esterase activity of the recovered cells were measured. In addition, changes in the karyotype of each cell was observed by Carrazzi's hematoxylin staining. The ratio of stained cells in each sample was measured to evaluate the differentiation induction capacity. The test was carried out in 5 replicates (n=5). A sample without addition of the test substance, and 0.1% ethyl alcohol (solvent control for the positive control) were used as negative controls, and retinoic acid (dissolved in ethyl alcohol; final concentration, 1 μM) and active vitamin D3 (dissolved in ethyl alcohol; final concentration, 10 nM) were used as positive controls. Details of each staining method are described below.
The concentration of the recovered cells was adjusted to 1×10^6 cells/mL with RPMI 1640 medium (SIGMA, R8758, serum-free), and an equal volume of NBT solution (PBS supplemented with 0.2% NBT and 20% FBS, which was used after filtration) was added thereto. TPA was added to the resulting mixture to a final concentration of 6 μM, and the mixture was then stirred. Thereafter, the mixture was left to stand at 37° C. for 30 minutes, and centrifuged at 1000 rpm for 5 minutes, followed by discarding the supernatant. Subsequently, the cells were resuspended in PBS, and applied onto a slide glass, followed by counting cells stained blue under the microscope.

[2] = test system: HL60 cells; experiment: Cytotoxicity test (mitochondrial activity level, counting of viable cells with WST-8); settings: 3 days of culture, FIG. 1
Protocol: HL60 cells were cultured using a test medium (RPMI 1640 medium, 10% FBS, antibiotic-free) to the logarithmic growth phase in a CO: incubator (5% Cq, 37° C.). 2) Cytotoxicity Test (Evaluation of the Toxicity Based on the Viability, that is, the Survival Rate or the Death Rate, of Cells) To each well of a 96-well plate, 0.1 mL of HL6O cells were plated at a concentration of 5×10^4 cells/mL, and a test substance (7 serial dilutions: a 10-fold dilution series ranging from 10%; the test substance was preliminarily sterilized by filtration) was added to the well at the same time. After 3 days of the culture, a viable cell assay reagent SF (final concentration, 10%) was added to the cell suspension culture liquid, and viable cells were counted. The test was carried out in 3 replicates (n=3). The viability of the cells was evaluated using a viable cell counting reagent SF (WST-8) based on measurement of the absorbance.

[3] = test system: HL60 cells; experiment: DNA methylation level in HL60 cells; settings: 10 days of culture, FIG. 7
[4] = test system: HL60 cells; experiment: Cell differentiation induction test, esterase staining (differentiation into monocytes); settings: final concentration 1 μM
Protocol: as §1
Esterase staining was carried out as follows using an esterase staining kit (manufactured by Muto Pure Chemicals Co., Ltd.). The concentration of the recovered cells was adjusted to 1×10^6 cells/mL with PBS. […]

[5] = test system: HL60 cells; experiment: Counting of viable cells by trypan blue staining; settings: positive control; solvent control 1.0×10^−5% DMSO; 5 days of culture; FIG. 8
Protocol: In each of T25 flasks, 5 mL of HL60 cells were seeded at 1×10^7 cells/flask. At the same time as the seeding, test substances (ethyl alcohol, retinoic acid, dimethyl sulfoxide, rotenone, SDW, and Examples 3 and 4) were fed to the flasks.
The addition of Example 3 to the medium was carried out after its sterilization by filtration. In Example 4, 10 mL of the test substance was warmed at 60° C. to evaporate the whole solvent, and 10 mL of sterile water was newly added thereto to dissolve the resultant. The resulting solution was sterilized by filtration, and then added to the medium. The retinoic acid to be added was provided as a concentrated solution containing retinoic acid at a concentration of 100 mM in ethyl alcohol, and the rotenone to be added was provided as a concentrated solution containing rotenone at a concentration of 100 mM in DMSO. […]
To 50 μL of a cell suspension culture liquid, 50 μL of a trypan blue solution was added, and the reaction was allowed to proceed for several minutes. Under the microscope, unstained cells and stained cells were counted using a hemocytometer. The number of dead cells (stained cells) per total number of cells was determined to calculate the number of live cells (cells/mL) and the dead cell ratio (%).

SMILES: C=C1/C(=C\C=C2/CCC[C@]3(C)[C@@H]([C@H](C)CCCC(C)(C)O)CC[C@@H]23)C[C@@H](O)C[C@@H]1O [active vitamin D3, reference compound]
- differentiation ratio (ratio of NBT-stained cells) ([1]; final concentration 10 nM, decreased by half): 4%

SMILES: O=c1c(O)c(-c2ccc(O)cc2)oc2cc(O)cc(O)c12 [kaempferol]
- differentiation ratio (ratio of NBT-stained cells) ([1]; 300 μg): 3%
- differentiation ratios (NBT-stained cells) on Day 10 of the culture, change ([1]; Day 10 of the culture, FIG. 4): decreased
- differentiation ratio (NBT-stained cells), trend ([1]; after 5 days of culture, FIG. 3): concentration-dependent improvement
- mitochondrial activity (absorbance, viable cell count) ([2]; concentration 0.1% (30 ng/mL=0.03 μg/mL) to 10% (300 μg/mL)): increased
- mitochondrial activity (absorbance, viable cell count) ([2]; concentration 3.2×10^−4% to 0.032%): suppressed
- DNA methylation level in the HL60 cells ([3]; concentration 0.001%): increased
- DNA methylation level in the HL60 cells ([3]; concentration 10% (300 μg/mL)): decreased

SMILES: CC1=C(/C=C/C(C)=C/C=C/C(C)=C/C(=O)O)C(C)(C)CCC1 [retinoic acid]
- differentiation ratio (ratio of NBT-stained cells) ([1]; final concentration 1 μM): 68%
- differentiation into monocytes (ratio of esterase-stained cells) ([4]; Day 5 of the culture): 2%
- differentiation into monocytes (ratio of esterase-stained cells) ([4]; Day 10 of the culture): 14%

SMILES: C=C(C)[C@H]1Cc2c(ccc3c2O[C@@H]2COc4cc(OC)c(OC)cc4[C@@H]2C3=O)O1 [rotenone]
- viable cell count by trypan blue staining versus solvent control [5]: decreased to about half
